Consider two molecules from US10370355B2, “Tetrahydroisoquinoline derivatives” (UCB Biopharma SPRL, priority 2016, dated 2019).

The target of this assay is T1, dopamine D1 receptor (Homo sapiens, UniProt P21728).
T1 construct: host or cells: LMtk (Ltk-) mouse fibroblast cells
The assay is described as follows: cAMP HTRF potentiation assay (presence of EC20 dopamine). It counts as cell-based. Conditions: potentiation of cAMP in presence of EC20 dopamine (1.1 nM); LMtk (Ltk-) mouse fibroblast cells expressing the dopamine D1 receptor. The text has this: The present assay allows to measure respectively the effects of compounds of the Examples in the absence of dopamine (“activation assay”) and the effects of compounds of the Examples in the presence of dopamine (“potentiation assay”).
The potentiation assay measures the ability of compounds to increase the levels of cAMP produced by a low-threshold concentration of dopamine. The concentration of dopamine used ([EC20]) is designed to produce 20% stimulation compared to the maximal response (100%) seen with increasing the concentration of dopamine. To measure this potentiation we incubate increasing concentrations of the compound with the [EC2O] of dopamine and measure the potentiation as increases in cAMP production. The pEC50 of a compound is the −log 10 of the concentration of the compound which produces 50% of the potentiation of the cAMP levels and the Erel is the relative efficacy, defined as the maximal % potentiation produced by the compound compared to the maximal response produced by increasing concentrations of dopamine (Erel of 1=dopamine maximum response).
Cells were cultured at 37° C. in a humidified atmosphere of 5% CO2. Cells were grown in DMEM-F12+GlutaMAX™-I medium (GIBCO®, Invitrogen, Merelbeke, Belgium) containing 10% fetal bovine serum (BioWhittaker®, Lonza, Verviers, Belgium), 400 μg/mL Geneticin (GIBCO®), 100 IU/mL Penicillin and 100 IU/mL Streptomycin (Pen-Strep solution, BioWhittaker®).
The measurement of changes in intracellular cyclic adenosinemonophopshpate (cAMP) was determined using the HTRF cAMP dynamic assay kit from CisBio (Codolet, France). Using homogenous time-resolved fluoresence technology, the assay is based on competition between native cAMP produced by cells and cAMP labelled with the dye d2. The tracer binding is determined by an anti-cAMP antibody labeled with cryptate. The effects of the compound alone (agonism) was determined by performing the assay in the absence of dopamine, whilst the effect of the compound as a positive allosteric modulator (PAM) was determined in the presence of an EC20 concentration of dopamine. Cells (20,000 per well) are incubated in 384 plates for 1 hour at room temperature in a final volume of 20 μLHBSS (Lonza, with calcium, magnesium and HEPES buffer 20 mM, pH 7.4) containing: isobutyl methylxanthine (Sigma, 0.1 mM final), varying concentrations of test compound (typically […] to 10^−4.5M) in the presence and absence of dopamine (1.1 nM final). The reaction is then terminated and the cells lysed by adding the d2 detection reagent in lysis buffer (10 microL) and the cryptate reagent in lysis buffer (10 microl) according to manufacturer's instructions. This is then incubated for a further 60 min at room temperature and changes in HTRF fluorescent emission ratio determined according to manufacturer's instructions using an Envision plate reader (Perkin Elmer, Zaventem, Belgium) with laser excitation. All incubations were performed in duplicate and results were compared to a concentration-effect curve to dopamine. (10^−11M to 10^−6M).
Data was analyzed using Excel and PRISM (GraphPad Software) to obtain pEC50 and Erel using the 4-parameter logistic equation (DeLean et al, 1978) where Erel is the fitted maximal response of the test compound minus basal expressed as a percentage relative to that obtained with dopamine which was defined as 100%.

The EC50 is the midpoint of the concentration-response curve.

Where only a bound is given, the exact number is not on record here.

T1 sequence (P21728 whole entry): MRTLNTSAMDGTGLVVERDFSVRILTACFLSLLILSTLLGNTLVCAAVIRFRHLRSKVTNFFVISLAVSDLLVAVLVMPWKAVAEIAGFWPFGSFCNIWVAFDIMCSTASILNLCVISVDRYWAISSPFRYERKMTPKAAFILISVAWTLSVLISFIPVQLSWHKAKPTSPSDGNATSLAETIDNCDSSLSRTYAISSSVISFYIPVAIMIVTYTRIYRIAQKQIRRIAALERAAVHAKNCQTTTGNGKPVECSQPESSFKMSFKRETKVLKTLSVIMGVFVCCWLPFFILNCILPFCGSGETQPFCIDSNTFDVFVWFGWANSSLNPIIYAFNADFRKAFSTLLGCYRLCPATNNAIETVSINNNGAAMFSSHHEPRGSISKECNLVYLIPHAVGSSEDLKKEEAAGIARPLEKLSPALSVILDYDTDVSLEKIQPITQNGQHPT

For the molecule `C[C@H]1c2cccc([C@](C)(O)CF)c2CCN1C(=O)Cc1c(Cl)ccn2ncc(Cl)c12` [Example 29, 2-(3,5-dichloropyrazolo[1,5-a]pyridin-4-yl)-1-[(1S)-5-[(1S)-2-fluoro-1-hydroxy-1-methyl-ethyl]-1-methyl-3,4-dihydro-1H-isoquinolin-2-yl]ethanone], the concentration for a half-maximal effect (EC50) was not above 0.0316 µM. With `C[C@H]1c2cccc([C@H](O)C(F)F)c2CCN1C(=O)Cc1c(Cl)ccn2ncc(Cl)c12` [Example 30, 2-(3,5-dichloropyrazolo[1,5-a]pyridin-4-yl)-1-[(1S)-5-[(1S)-2,2-difluoro-1-hydroxy-ethyl]-1-methyl-3,4-dihydro-1H-isoquinolin-2-yl]ethanone], the EC50 is not above 0.0316 µM.
